Measured values reported in US6146554A, “Photochromic naphtopyrane colorants, method for the production and use thereof, photochromic object” (Optische Werke G. Rodenstock, priority 1997, dated 2000).

Key:
Format in all cases: physicochemical
[1] = Brightening rate and brightening kinetics in the polymer Transhade-150; conditions: for Δ(10 min, 23° C.) relative brightening: within 10 min at 23° C.
Experimental: For a further illustration of the foregoing explanations comparative tests have been carried out again on the inventive compounds and on known compounds. The compounds used are derived from the compound of the following general formula: [drawing 5]
The brightening rate and the brightening kinetics were measured for differently substituted systems in the polymer Transhade-150 of the company of Tokuyama at different temperatures. The results obtained are summarised in the following, with the following terms being used:
Δ=relative brightening within 10 minutes at 23° C.
=100% (.tau.10 min-.tau.s)/(.tau.0-.tau.s)
.tau.s is the transmission achieved after 15 min of obscuration
.tau.0 is the transmission in the fully brightened condition
.tau.10 min is the transmission after 10 min brightening in the dark
T1/2 =time elapsing up to a brightening level corresponding to half the darkening level (half-period)
The brightening kinetics of differently substituted systems was determined, with R1, R2 and R3 representing either the methoxy group or hydrogen; the measurements were performed at 23° C. and 40° C.
Production of the test specimens:
(§1) 500 ppm of the respective photochromic dye are dissolved in the employed monomer (TRANSHADE-150 from the company of Tokuyama; index of refraction 1.52) at room temperature while stirring. After the addition of an initiator of the alkyl peroxy-ester type (1.5% by weight) degassing is performed twice and subsequently the polymerisation is carried out in correspondence with the temperature programme recommended by the Tokuyama company. The glass casting moulds are coloured in black so that the entirety of the photochromic dyes may be integrated into the matrix in a non-excited state. After completion of the polymerisation process the test specimens are additionally tempered at 100° C. for 2 hours.
Plotting of the kinetics graphs:
For the determination of the brightening rates the test specimens so produced were measured in a common kinetics test bench (irradiation with 50 klux in compliance with EN 1836, item 6.1.3.1.1). The exposure time was 15 minutes in each case, brightening takes place in the dark. During exposure and brightening the transmission graph--evaluated by the sensitivity to brightness of the human eye, V λ--is recorded. The glass temperature is controlled via a cuvette designed for being controlled by means of a thermostat.

[2] = Absorption maximums of the closed and open forms and colour (Table 1, FIGS. 4 and 5); conditions: for max closed form / max closed form (shoulder): closed (not excited) form; for max closed form: Transhade-150 test specimen, 500 ppm; for colour / max open form: open (excited) form
Excerpt: For illustration of the aforedescribed bathochromic shift of the inventive compounds, compared against prior art, comparative tests have been carried out.
The first three compounds in Table 1--V1, V2 and Example 3--correspond to prior art (cf. WO 96/14596); the production of V1 and V2 is described there in details.
The production of the test specimens and the measuring methodology are described in details i the Examples.
FIGS. 4 and 5 show the absorption of the closed form or the absorption of the open form, compared against the absorption of the prior art compounds V1 and V2, expressed by plotting the extinction versus the wavelength. For a better recognition of the bathochromic shift a normalisation of the absorption intensity to roughly the same value has been made in the open form.
Absorption maximums of the open and closed forms, starting out
as §1

[3] = Photochromy observed in solution and in the glass
Experimental: (ix) 1 g of the above reaction product is dissolved in 50 ml of absolute THF while stirring and cooled in an ice bath. Lithium aluminium hydride is added in small portions until the colour of the reaction solution does no longer brighten up. Stirring is then continued for another 10 min. and the solution is poured into water, acidified with conc. hydrochloric acid until the phases are clear whereupon the organic phase is isolated. After extraction with water, drying over sodium sulphate and removal of the solvent by rotation a brownish viscous residue remains which crystallises when methanol is added. The suspension is stirred at room temperature for some minutes more and then the precipitate is exhausted. The slightly brownish solid (0.8 g) was identified as 6-methoxy-3-(4-methoxy phenyl)-3-phenyl-13-hydroxy-benz[p]indeno[2,1-f]naphtho[1,2-b]pyrane by means of the NMR spectrum.

[4] = Table 3: R1 = OCH3, R2 = R3 = H
[5] = Table 4: R1 = R3 = OCH3, R2 = H

For `COc1ccc(C2(c3ccccc3)C=Cc3c4c(c5ccc(OC)cc5c3O2)-c2ccccc2C4(O)c2sccc2C)cc1` (stereo not shown) [Example 9, 6-methoxy-3-(4-methoxyphenyl)-3-phenyl-13-(3-methyl-2-thienyl)-13-hydroxy-indeno[2,1-f]naphtho[1,2-b]pyrane], the “T1/2 (40° C.)” value [1, 4] was 3.4 min and the “Δ(10 min, 23° C.) relative brightening” value [1, 4] was 38%.

For `COc1ccc(C2(c3ccccc3)C=Cc3c4c(c5ccc(OC)cc5c3O2)-c2ccccc2C4(O)c2cc(C)ccc2C)cc1` (stereo not shown) [Example 8, 6-methoxy-3-(4-methoxyphenyl)-3-phenyl-13-(2,5-dimethylphenyl)-13-hydroxy-indeno[2,1-f]naphtho[1,2-b]pyrane], the “T1/2 (40° C.)” value [1, 4] was 4.0 min and the “Δ(10 min, 23° C.) relative brightening” value [1, 4] was 36%.

For `CCC1(O)c2ccccc2-c2c1c1c(c3cc(OC)ccc23)OC(c2ccccc2)(c2ccc(OC)cc2)C=C1` (stereo not shown) [Example 4, 6-methoxy-3-(4-methoxyphenyl)-3-phenyl-13-ethyl-13-hydroxy-indeno[2,1-f]naphtho[1,2-b]pyrane], the “T1/2 (40° C.)” value [1, 4] was 7.0 min and the “Δ(10 min, 23° C.) relative brightening” value [1, 4] was 25%.

In the case of `COc1ccc(C2(c3ccccc3)C=Cc3c4c(c5ccc(OC)cc5c3O2)-c2ccc3ccccc3c2C4O)cc1` (stereo not shown) [Example 1, 6-methoxy-3-(4-methoxyphenyl)-3-phenyl-13-hydroxy-benz[p]indeno[2,1-f]naphtho[1,2-b]pyrane], the max closed form [2] is reported as 385 nm, the colour [2] is reported as “green” and the max open form [2] is reported as 600 nm. For the same compound, the photochromy colour [3] was “green photochromy”.

For `COc1ccc(C2(c3ccccc3)C=Cc3c4c(c5ccc(OC)cc5c3O2)-c2ccccc2C4O)cc1` (stereo not shown) [Example 3, 6-methoxy-3-(4-methoxyphenyl)-3-phenyl-13-hydroxy-indeno[2,1-f]-naphtho[1,2-b]pyrane], the “max closed form (shoulder)” value [2] was 375 nm, the max closed form [2] was 360 nm and the colour [2] was “blue”. The max open form [2] was 575 nm.

In the case of `COc1ccc(C2(c3ccccc3)C=Cc3c4c(c5ccc(OC)cc5c3O2)-c2ccccc2C4(O)c2ccccc2)cc1` (stereo not shown) [Example 5, 13-hydroxy-6-methoxy-3-(4-methoxyphenyl)-3,13-diphenyl indeno[2,1-f]-naphtho[1,2-b]pyrane], the “T1/2 (40° C.)” value [1, 4] is reported as 7.0 min and the “Δ(10 min, 23° C.) relative brightening” value [1, 4] is reported as 22%.

In the case of `COc1ccc(C2(c3ccccc3)C=Cc3c4c(c5ccc(OC)cc5c3O2)-c2ccccc2C4(O)c2cccc3ccccc23)cc1` (stereo not shown) [Example 6, 6-methoxy-3-(4-methoxyphenyl)-3-phenyl-13-(1-naphthyl)-13-hydroxy-indeno [2,1-f]-naphtho[1,2-b]pyrane], the “T1/2 (40° C.)” value [1, 4] is reported as 5.0 min and the “Δ(10 min, 23° C.) relative brightening” value [1, 4] is reported as 29%.

With `COc1ccc(C2(c3ccc(OC)cc3)C=Cc3c4c(c5ccc(OC)cc5c3O2)-c2ccccc2C4(O)c2ccccc2)cc1` (stereo not shown) [Example V3] the “T1/2 (40° C.)” value [1, 5] was 2.5 min and the “Δ(10 min, 23° C.) relative brightening” value [1, 5] was 43%.

For `COc1ccc(C2(c3ccc(OC)cc3)C=Cc3c4c(c5ccc(OC)cc5c3O2)-c2ccccc2C4(O)c2cccc3ccccc23)cc1` (stereo not shown) [Example V4], the “T1/2 (40° C.)” value [1, 5] was 2.5 min and the “Δ(10 min, 23° C.) relative brightening” value [1, 5] was 44%.

For `COc1ccc(C2(c3ccccc3)C=Cc3c4c(c5ccc(OC)cc5c3O2)-c2ccccc2C4(O)c2ccccc2C)cc1` (stereo not shown) [Example 7], the “T1/2 (40° C.)” value [1, 4] was 4.2 min and the “Δ(10 min, 23° C.) relative brightening” value [1, 4] was 34%.

For `COc1ccc(C2(c3ccc(OC)cc3)C=Cc3c4c(c5ccc(C)cc5c3O2)-c2ccc(C)cc2C4O)cc1` (stereo not shown) [Example V2], the “max closed form (shoulder)” value [2] was 375 nm, the max closed form [2] was 350 nm and the colour [2] was “blue-violet”. For the same compound, the max open form [2] was 570 nm.
